In a melting point compilation (Tetko et al.; mined from patent text by program, amines drawn as free bases though some values may be those of a salt):

Row | Compound | melting point
1 | CC(C)NC(=O)Oc1ccc2c(N(C)CCN3CCOCC3)noc2c1 | 99 to 100 °C
2 | Nc1ccccc1SSc1ccccc1N | 88 to 89 °C
3 | Cc1ccc(NS(=O)(=O)c2ccc(N3CCNC3=O)cc2)c(C)c1 | 238 to 239 °C
4 | C[C@@H](Nc1nc(Nc2cccc(NS(C)(=O)=O)c2)nc2[nH]ccc12)C(C)(C)C | 125 to 128 °C
5 | CCc1nc2c(cnn2CC)c(NC2CCOCC2)c1CN(Cc1ccc(OC)c(-c2cccc(CN3CCN(C)CC3)c2)c1)C(=O)c1cccc(C(N)=O)c1 | 120 to 123 °C
6 | c1ccc(COc2ccc(CCCCn3cncn3)cc2)cc1 | 68 to 69 °C
7 | CC(C)(CNc1c(C(N)=O)cnn2cccc12)N1CCOCC1 | 179 °C
8 | O=[N+]([O-])c1cccc2c(C(F)(F)F)cccc12 | 107 to 108 °C
9 | COn1c(C)nn(-c2cc(F)c(C#N)cc2Cl)c1=O | 102 °C
10 | Cn1ncc(C(=O)N2CCCC2)c1C(=O)Nc1ccc2nc(-c3ccccc3)nn2c1 | 210 °C
11 | CSc1nn2c(N)cc(C(C)C)nc2c1S(=O)(=O)c1ccccc1 | 210 to 211 °C
12 | CCCNC(=O)C1(CCCCP(=O)(c2ccccc2)c2ccccc2)c2ccccc2-c2ccccc21 | 163 to 165 °C
13 | COc1cc(OCc2ccncc2)ccc1/C=C/c1cc(/C=C/c2cccc3[nH]ccc23)n[nH]1 | 207 to 215 °C
14 | Cc1nccn1-c1ccc(O)cc1 | 205 to 208 °C
15 | N=c1sc2cc(OC(F)(F)F)ccc2n1CCS(=O)C1CCN(Cc2ccccc2)CC1 (stereo unspecified) | 97 °C
16 | O=C(O)C1CCN(c2ccc3nc4[nH]c(=O)[nH]c4cc3c2)CC1 | > 310 °C
17 | COc1ccc(C(=O)c2c(-c3ccccc3)sc3cc(OC)ccc23)cc1 | 132 °C
18 | O=C(Nc1ccccc1)OC(c1cccnc1)C(Cl)(Cl)Cl (stereo unspecified) | 146 °C
19 | CCCCC(CC)C(=O)Nc1ccc(Oc2ccccc2)c2c(=O)c3ccccc3n(C)c12 (stereo unspecified) | 154 to 156 °C
20 | CCN(CC)c1nc(-c2ccc(OC)c(OC)c2)nc2sc(C#N)c(C)c12 | 159 to 161 °C
21 | COc1ccnc(CCc2nc3cc(-c4ccc(S(=O)(=O)NC5CCCCC5)cc4)cnc3[nH]2)c1 | 199 to 200 °C
22 | COc1c(Cl)ccc(C2=NC(C)(C)CO2)c1SC | 50 to 52 °C
23 | CCOC(=O)c1cn(CCO)c2nc(-c3ccncc3)c(F)cc2c1=O | 223 to 225 °C
24 | CN1CC(=O)NC(=O)N1c1cc(Cl)c(Oc2ccc(S(C)(=O)=O)cc2)c(Cl)c1 | 223 °C
25 | CC(=O)c1cc(C(=O)O)c(=O)[nH]c1C | 238 to 241 °C
26 | CCC(=O)NCC1CC1c1cccc2nscc12 (stereo unspecified) | 84 to 86 °C

Row | Compound | melting point
27 | CCOC(=O)Cn1c(C(=O)OCC)c(O)c(O)c1C(=O)OCC | 121 to 122 °C
28 | CCCCCCCCC=CCCCCCCCCCCCC(=O)Nc1ccc(Cl)cc1C(=O)O | 159 to 162 °C
29 | CC(C)(C)NC(=O)Nc1ccc2oc3c(c2c1)CCCC3 | 310 to 312 °C
30 | N=C(Cc1ccccc1)Nc1ncccc1OCc1ccccc1Br | 158 to 169 °C
31 | CN(CC(N)=O)C(=O)CCl | 85 to 86 °C
32 | CCOCc1nc2c(N)nc3c(c2n1NCCCNC(C)=O)CCCC3 | 198 to 200 °C
33 | CC(C)=CCC(O)C(C)C1CC=C2C3=C(CCC21C)C1(C)CCC(O)C(C)(C)C1CC3 (stereo unspecified) | 70 to 72 °C
34 | CCOC(=O)CCc1ccc(OCCCc2cn(-c3ccc(C(F)(F)F)cn3)nc2OCC)cc1OCc1ccccc1 | 80 to 81 °C
35 | CN(C)c1ccc(NC(=O)C(CS)Cc2ccccc2)cc1C(=O)O (stereo unspecified) | 85 to 89 °C
36 | O=C(CCC(=O)N1CCC(c2ccc(Cl)cc2)CC1)c1ccc2c(c1)CCN(C1CCCCC1)CC2 | 128 to 130 °C
37 | N#Cc1c2n(c3ccccc13)CCNCC2 | 161 to 164 °C
38 | COCON=C(C(=O)C=CN(C)C)C(=O)OC | 99 to 100 °C
39 | Cc1nc(-c2ccccc2)nc(N2CCCC2C(=O)N2CC(C)NC(C)C2)c1C (stereo unspecified) | 160 to 162 °C
40 | C=CCN(CC=C)c1nc(NC(=O)c2ccc(Cl)cc2)n2oc(=O)nc2n1 | 192 to 194 °C
41 | CC[C@H](C)COc1ccc(O)cc1 | 44 to 45 °C
42 | CCOC(=O)[C@H](CSCc1ccccc1)NC(=O)C(C)(C)NC(=O)[C@@H](SC(C)=O)C(C)C | 69 to 71 °C
43 | CCCCCS(=O)(=O)NC(=O)/C=C/c1ccc(OCC(C)=O)cc1Oc1ncc(C(F)(F)F)cc1Cl | 187 to 188 °C
44 | CCOc1ccc(-c2nc(-c3ccc(O)c(C(=O)O)n3)cs2)cc1OCC | 161 to 162 °C
45 | Cc1c(Br)ccc(S(C)(=O)=O)c1C1=NOC(CCl)(CCl)C1 | 144 to 145 °C
46 | O=Cc1ccc(F)c(F)c1 | 95 to 96 °C
47 | O=C(O)CCc1cnoc1-c1ccc(Cl)cc1Cl | 106 to 107 °C
48 | COC(=O)C1(C)CN(C(=O)Nc2ccc(Cl)cn2)N=C1c1ccc(Cl)cc1 (stereo unspecified) | 130 to 146 °C
49 | CCCCc1csc2ccc3[nH]c4c(c3c12)CN(Cc1ccccc1)CC4 | 127 to 128 °C
50 | COc1ccc(-c2sc3cc(OC)ccc3c2C(=O)c2ccc(/C=C/C(=O)O)cc2)cc1 | 204 to 207 °C
51 | CCC(CC)(CC)C(=O)O[C@H]1CCC=C2C=C[C@H](C)[C@H](CC[C@@H]3C[C@@H](O)CC(=O)O3)[C@H]21 | 65 to 68 °C
